According to ChEMBL document CHEMBL3885881, “DrugMatrix”:
Starred links: 1 amine or outer side, 2 acyl side, 3 side chain; linkers in the order of their positions; H or OH if unused. Positions of bridges follow the written chain, without caps; N, C: chain ends. Non-standard residues stand in square brackets, D forms with d. Residues, ends and D or L forms follow the SMILES beside them. Chains are numbered I, II in the order given. Actinocin(9to1) = Cc1c2oc3c(C)ccc(C(=O)[*:1])c3nc-2c(C(=O)[*:2])c(N)c1=O; NMeV = CN[C@H](C(=O)O)C(C)C; Sar = CNCC(=O)O

Species on record: Rattus norvegicus
Test: DrugMatrix - Regimen: Daily Repeat
Assay type: toxicity, organism-based, Sprague-Dawley
Set-up: regimen Daily Repeat, gender Male, age 6-8 weeks
Conditions: in vivo, iv, vehicle 100 % SALINE; for ABSOLUTE BASOPHIL / ABSOLUTE EOSINOPHIL / ABSOLUTE LYMPHOCYTE / ABSOLUTE MONOCYTE / ABSOLUTE SEGMENTED NEUTROPHIL / BASOPHIL / EOSINOPHIL / ERYTHROCYTE COUNT / HEMATOCRIT / HEMOGLOBIN / LEUKOCYTE COUNT / LYMPHOCYTE / MEAN CORPUSCULAR HEMOGLOBIN / MEAN CORPUSCULAR HEMOGLOBIN CONCENTRATION / MEAN CORPUSCULAR VOLUME / MONOCYTE / NEUTROPHIL / NUCLEATED RED BLOOD CELLS / PLATELET COUNT: tissue Blood; for ALANINE AMINOTRANSFERASE / ALBUMIN / ALKALINE PHOSPHATASE / ASPARTATE AMINOTRANSFERASE / BLOOD UREA NITROGEN / CARBON DIOXIDE / CHLORIDE / CHOLESTEROL / CREATINE PHOSPHOKINASE / CREATININE / GLUCOSE / LACTATE DEHYDROGENASE / LIPASE / PHOSPHORUS / POTASSIUM / SODIUM / TOTAL BILIRUBIN / TOTAL PROTEIN / URIC ACID: tissue Plasma
[1] = 0 mg/kg, 72 h, dose level Control, time 3 day
[2] = 0 mg/kg, 120 h, dose level Control, time 5 day
[3] = 0.006 mg/kg, 72 h, dose level Low, time 3 day

SMILES: Cc1c2oc3c(C)ccc(C(=O)N[C@@H]4C(=O)N[C@H](C(C)C)C(=O)N5CCC[C@H]5C(=O)N(C)CC(=O)N(C)[C@@H](C(C)C)C(=O)O[C@@H]4C)c3nc-2c(C(=O)N[C@@H]2C(=O)N[C@H](C(C)C)C(=O)N3CCC[C@H]3C(=O)N(C)CC(=O)N(C)[C@@H](C(C)C)C(=O)O[C@@H]2C)c(N)c1=O [DACTINOMYCIN] (I: T[dV]P[Sar][NMeV] / II: T[dV]P[Sar][NMeV]; ester I:1-I:C, II:1-II:C; linker I:N-II:N via Actinocin(9to1))
- ABSOLUTE BASOPHIL [1]: 0 CELLS/uL
- ABSOLUTE EOSINOPHIL [1]: 33.67 CELLS/uL
- ABSOLUTE LYMPHOCYTE [1]: 12123.5 CELLS/uL
- ABSOLUTE MONOCYTE [1]: 243.5 CELLS/uL
- ABSOLUTE SEGMENTED NEUTROPHIL [1]: 1282.67 CELLS/uL
- BASOPHIL [1]: 0%
- EOSINOPHIL [1]: 0.33%
- ERYTHROCYTE COUNT [1]: 5.18 x10E6/uL
- HEMATOCRIT [1]: 32.63%
- HEMOGLOBIN [1]: 12.87 G/DL
- LEUKOCYTE COUNT [1]: 13.68 x10E3/uL
- LYMPHOCYTE [1]: 88.67%
- MEAN CORPUSCULAR HEMOGLOBIN [1]: 24.98 pg
- MEAN CORPUSCULAR HEMOGLOBIN CONCENTRATION [1]: 39.48 G/DL
- MEAN CORPUSCULAR VOLUME [1]: 63.23 fL
- MONOCYTE [1]: 1.83%
- NEUTROPHIL [1]: 9.17%
- NUCLEATED RED BLOOD CELLS [1]: 0.17 /100WBC
- PLATELET COUNT [1]: 1114.5 x10E3/uL
- ALANINE AMINOTRANSFERASE [1]: 46.17 u/L
- ALBUMIN [1]: 4.15 G/DL
- ALKALINE PHOSPHATASE [1]: 374.67 u/L
- ASPARTATE AMINOTRANSFERASE [1]: 89.33 u/L
- BLOOD UREA NITROGEN [1]: 14.83 mg/dL
- CARBON DIOXIDE [1]: 25.67 mmol/L
- CHLORIDE [1]: 101.17 MEQ/L
- CHOLESTEROL [1]: 63.5 mg/dL
- CREATINE PHOSPHOKINASE [1]: 494.67 u/L
- CREATININE [1]: 0.17 mg/dL
- GLUCOSE [1]: 163 mg/dL
- LACTATE DEHYDROGENASE [1]: 269.33 u/L
- LIPASE [1]: 10.67 u/L
- PHOSPHORUS [1]: 11.27 mg/dL
- POTASSIUM [1]: 5.85 MEQ/L
- SODIUM [1]: 141.68 MEQ/L
- TOTAL BILIRUBIN [1]: 0.18 mg/dL
- TOTAL PROTEIN [1]: 5.87 G/DL
- URIC ACID [1]: 1.28 mg/dL
- ABSOLUTE BASOPHIL [2]: 0 CELLS/uL
- ABSOLUTE EOSINOPHIL [2]: 24.67 CELLS/uL
- ABSOLUTE LYMPHOCYTE [2]: 11832.83 CELLS/uL
- ABSOLUTE MONOCYTE [2]: 279.67 CELLS/uL
- ABSOLUTE SEGMENTED NEUTROPHIL [2]: 1446.17 CELLS/uL
- BASOPHIL [2]: 0%
- EOSINOPHIL [2]: 0.17%
- ERYTHROCYTE COUNT [2]: 5.61 x10E6/uL
- HEMATOCRIT [2]: 35.02%
- HEMOGLOBIN [2]: 13.82 G/DL
- LEUKOCYTE COUNT [2]: 13.58 x10E3/uL
- LYMPHOCYTE [2]: 87.67%
- MEAN CORPUSCULAR HEMOGLOBIN [2]: 24.68 pg
- MEAN CORPUSCULAR HEMOGLOBIN CONCENTRATION [2]: 39.5 G/DL
- MEAN CORPUSCULAR VOLUME [2]: 62.42 fL
- MONOCYTE [2]: 2%
- NEUTROPHIL [2]: 10.17%
- NUCLEATED RED BLOOD CELLS [2]: 0 /100WBC
- PLATELET COUNT [2]: 1178.17 x10E3/uL
- ALANINE AMINOTRANSFERASE [2]: 52.83 u/L
- ALBUMIN [2]: 4.12 G/DL
- ALKALINE PHOSPHATASE [2]: 370 u/L
- ASPARTATE AMINOTRANSFERASE [2]: 100.5 u/L
- BLOOD UREA NITROGEN [2]: 15.17 mg/dL
- CARBON DIOXIDE [2]: 28.83 mmol/L
- CHLORIDE [2]: 101 MEQ/L
- CHOLESTEROL [2]: 69.5 mg/dL
- CREATINE PHOSPHOKINASE [2]: 488.67 u/L
- CREATININE [2]: 0.23 mg/dL
- GLUCOSE [2]: 165 mg/dL
- LACTATE DEHYDROGENASE [2]: 502.17 u/L
- LIPASE [2]: 11 u/L
- PHOSPHORUS [2]: 11.7 mg/dL
- POTASSIUM [2]: 5.85 MEQ/L
- SODIUM [2]: 142.45 MEQ/L
- TOTAL BILIRUBIN [2]: 0.18 mg/dL
- TOTAL PROTEIN [2]: 5.85 G/DL
- URIC ACID [2]: 1.43 mg/dL
- ABSOLUTE BASOPHIL [3]: 0 CELLS/uL
- ABSOLUTE EOSINOPHIL [3]: 0 CELLS/uL
- ABSOLUTE LYMPHOCYTE [3]: 7777.33 CELLS/uL
- ABSOLUTE MONOCYTE [3]: 151.33 CELLS/uL
- ABSOLUTE SEGMENTED NEUTROPHIL [3]: 1138 CELLS/uL
- BASOPHIL [3]: 0%
- EOSINOPHIL [3]: 0%
- ERYTHROCYTE COUNT [3]: 5.68 x10E6/uL
- HEMATOCRIT [3]: 35.57%
- HEMOGLOBIN [3]: 13.43 G/DL
- LEUKOCYTE COUNT [3]: 9.07 x10E3/uL
- LYMPHOCYTE [3]: 85.67%
- MEAN CORPUSCULAR HEMOGLOBIN [3]: 23.67 pg
- MEAN CORPUSCULAR HEMOGLOBIN CONCENTRATION [3]: 37.77 G/DL
- MEAN CORPUSCULAR VOLUME [3]: 62.63 fL
- MONOCYTE [3]: 1.67%
- NEUTROPHIL [3]: 12.67%
- NUCLEATED RED BLOOD CELLS [3]: 0 /100WBC
- PLATELET COUNT [3]: 1053 x10E3/uL
- ALANINE AMINOTRANSFERASE [3]: 49.33 u/L
- ALBUMIN [3]: 4.33 G/DL
- ALKALINE PHOSPHATASE [3]: 363.33 u/L
- ASPARTATE AMINOTRANSFERASE [3]: 85.33 u/L
- BLOOD UREA NITROGEN [3]: 14 mg/dL
- CARBON DIOXIDE [3]: 26 mmol/L
- CHLORIDE [3]: 101.67 MEQ/L
- CHOLESTEROL [3]: 85.33 mg/dL
- CREATINE PHOSPHOKINASE [3]: 333 u/L
- CREATININE [3]: 0.25 mg/dL
- GLUCOSE [3]: 155.67 mg/dL
- LACTATE DEHYDROGENASE [3]: 134 u/L
- LIPASE [3]: 11 u/L
- PHOSPHORUS [3]: 10.57 mg/dL
- POTASSIUM [3]: 6.37 MEQ/L
- SODIUM [3]: 143.37 MEQ/L
- TOTAL BILIRUBIN [3]: 0.3 mg/dL
- TOTAL PROTEIN [3]: 6.17 G/DL
- URIC ACID [3]: 1.6 mg/dL
